molecular target: Sodium channel protein type 9 subunit alpha (Homo sapiens, UniProt Q15858); experiment: cell-based
Sequence (Q15858 whole entry): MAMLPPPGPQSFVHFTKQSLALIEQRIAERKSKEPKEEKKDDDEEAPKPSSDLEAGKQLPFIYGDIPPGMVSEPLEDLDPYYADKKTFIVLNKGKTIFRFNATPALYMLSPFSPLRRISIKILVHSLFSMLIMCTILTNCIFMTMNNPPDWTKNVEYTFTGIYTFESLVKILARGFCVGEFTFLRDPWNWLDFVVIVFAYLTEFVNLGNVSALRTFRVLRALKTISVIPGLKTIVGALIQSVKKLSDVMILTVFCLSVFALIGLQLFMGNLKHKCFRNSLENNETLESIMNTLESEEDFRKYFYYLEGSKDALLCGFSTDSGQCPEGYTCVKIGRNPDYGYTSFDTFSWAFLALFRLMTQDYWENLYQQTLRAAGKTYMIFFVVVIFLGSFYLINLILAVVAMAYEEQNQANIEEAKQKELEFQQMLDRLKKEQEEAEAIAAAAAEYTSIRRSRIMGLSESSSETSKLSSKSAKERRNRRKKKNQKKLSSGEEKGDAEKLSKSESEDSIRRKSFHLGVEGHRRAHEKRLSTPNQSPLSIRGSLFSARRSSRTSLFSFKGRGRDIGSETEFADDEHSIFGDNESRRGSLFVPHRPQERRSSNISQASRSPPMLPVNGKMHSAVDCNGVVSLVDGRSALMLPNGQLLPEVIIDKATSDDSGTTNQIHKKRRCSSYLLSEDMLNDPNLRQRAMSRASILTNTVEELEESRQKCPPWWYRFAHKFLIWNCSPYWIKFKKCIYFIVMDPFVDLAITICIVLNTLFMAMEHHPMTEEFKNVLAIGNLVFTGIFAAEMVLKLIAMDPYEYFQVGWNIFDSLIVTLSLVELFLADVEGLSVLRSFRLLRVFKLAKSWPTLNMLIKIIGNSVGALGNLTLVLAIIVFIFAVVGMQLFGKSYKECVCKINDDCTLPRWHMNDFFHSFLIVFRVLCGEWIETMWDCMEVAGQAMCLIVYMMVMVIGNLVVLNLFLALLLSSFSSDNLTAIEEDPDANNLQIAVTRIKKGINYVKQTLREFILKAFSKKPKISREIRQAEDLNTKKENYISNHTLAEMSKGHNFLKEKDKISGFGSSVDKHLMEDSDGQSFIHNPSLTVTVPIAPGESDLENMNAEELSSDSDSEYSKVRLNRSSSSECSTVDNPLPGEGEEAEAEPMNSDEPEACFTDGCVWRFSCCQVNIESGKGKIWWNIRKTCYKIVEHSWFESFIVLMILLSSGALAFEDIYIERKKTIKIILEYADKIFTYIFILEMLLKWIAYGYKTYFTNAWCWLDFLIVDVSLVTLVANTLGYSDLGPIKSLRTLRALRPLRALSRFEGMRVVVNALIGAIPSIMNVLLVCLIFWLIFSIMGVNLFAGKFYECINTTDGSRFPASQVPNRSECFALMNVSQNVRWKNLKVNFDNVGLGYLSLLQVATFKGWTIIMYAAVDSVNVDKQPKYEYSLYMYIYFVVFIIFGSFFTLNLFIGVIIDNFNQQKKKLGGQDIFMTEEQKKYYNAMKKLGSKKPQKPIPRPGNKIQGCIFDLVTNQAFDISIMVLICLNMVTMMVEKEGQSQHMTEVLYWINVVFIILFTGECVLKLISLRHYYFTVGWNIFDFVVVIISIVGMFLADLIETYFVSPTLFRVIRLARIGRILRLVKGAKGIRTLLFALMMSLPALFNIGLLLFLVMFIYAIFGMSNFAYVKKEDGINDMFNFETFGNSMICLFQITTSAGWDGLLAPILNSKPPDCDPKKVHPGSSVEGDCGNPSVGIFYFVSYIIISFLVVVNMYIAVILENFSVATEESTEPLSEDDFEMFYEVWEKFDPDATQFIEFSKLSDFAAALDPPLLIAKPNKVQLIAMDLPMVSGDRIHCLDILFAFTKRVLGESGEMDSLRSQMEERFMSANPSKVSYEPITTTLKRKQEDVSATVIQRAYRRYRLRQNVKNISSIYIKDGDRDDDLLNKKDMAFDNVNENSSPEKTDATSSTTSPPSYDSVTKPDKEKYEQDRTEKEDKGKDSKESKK

SMILES	IC50
Cc1cnc(NS(=O)(=O)c2ccc(Oc3ccc(Cl)cc3-c3ccnn3C)c(C#N)c2)cn1	10 µM
Cn1nccc1NS(=O)(=O)c1ccc(Oc2ccc(Cl)cc2-c2ccnn2C)c(C#N)c1	10 µM
Cc1nonc1NS(=O)(=O)c1ccc(Oc2ccc(Cl)cc2-c2ccnn2C)c(C#N)c1	10 µM
COc1nccnc1NS(=O)(=O)c1ccc(Oc2ccc(Cl)cc2-c2ccnn2C)c(C#N)c1	10 µM
Cn1nccc1-c1cc(Cl)ccc1Oc1ccc(S(=O)(=O)Nc2cc[nH]n2)cc1C#N	10 µM
Cn1nccc1-c1cc(Cl)ccc1Oc1ccc(S(=O)(=O)Nc2cccnc2)cc1C#N	10 µM
N#Cc1cc(S(=O)(=O)Nc2ncsn2)ccc1Oc1ccccc1-c1ccccc1	4.6 µM
N#Cc1cc(S(=O)(=O)Nc2cnsn2)ccc1Oc1ccccc1-c1ccccc1	5.68 µM
Cc1ccc(Oc2ccc(S(=O)(=O)Nc3nccs3)cc2F)c(-c2ccn(C)n2)c1	6.44 µM
N#Cc1cc(S(=O)(=O)Nc2nccs2)ccc1Oc1ccc(-c2ccc(C(F)(F)F)cn2)cc1	3.3 µM

Reference: ChEMBL document CHEMBL2321810, “QSAR investigation of NaV1.7 active compounds using the SVM/Signature approach and the Bioclipse Modeling platform” (Bioorg Med Chem Lett, 2013)
